# pIC50: −log10 of the molar value.
# How the values were obtained:
# [1] = molecular target: T1, Steroid 17-alpha-hydroxylase/17,20 lyase (Homo sapiens, UniProt P05093); test: Inhibition of CYP17 in human testicular microsomes using 17alpha-hydroxypregnenolone as substrate assessed as decrease in DHEA levels after 90 mins by ELISA; set-up: species or system Testis
# T1 sequence (P05093 whole entry): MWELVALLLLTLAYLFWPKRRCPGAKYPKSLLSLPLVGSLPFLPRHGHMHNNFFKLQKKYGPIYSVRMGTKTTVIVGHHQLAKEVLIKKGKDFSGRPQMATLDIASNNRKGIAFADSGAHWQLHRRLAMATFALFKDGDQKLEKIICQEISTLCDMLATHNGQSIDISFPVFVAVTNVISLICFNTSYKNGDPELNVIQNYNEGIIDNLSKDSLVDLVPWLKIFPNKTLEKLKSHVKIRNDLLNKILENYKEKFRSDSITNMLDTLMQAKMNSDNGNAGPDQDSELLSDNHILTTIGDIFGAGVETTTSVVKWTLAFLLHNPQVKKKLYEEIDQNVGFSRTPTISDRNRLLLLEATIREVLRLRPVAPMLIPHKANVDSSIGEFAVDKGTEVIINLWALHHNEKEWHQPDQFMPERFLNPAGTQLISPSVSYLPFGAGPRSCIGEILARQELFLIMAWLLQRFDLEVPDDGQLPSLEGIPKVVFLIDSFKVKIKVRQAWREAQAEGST
# [2] = molecular target: T1, Steroid 17-alpha-hydroxylase/17,20 lyase; test: Inhibition of human C17,20-lyase in human testis microsomes at 10 nM using 17alpha-hydroxypregnenolone/[21-3H]-17alpha-hydroxypregnenolone as substrate after 30 mins by scintillation counting method relative to control; details: 0.5 h
# [3] = Half life in rat liver microsomes at 1 uM by LC-MS/MS analysis
# [4] = Half life in human liver microsomes at 1 uM by LC-MS/MS analysis
# [5] = molecular target: T1, Steroid 17-alpha-hydroxylase/17,20 lyase; test: Inhibition of CYP17 in human testicular microsomes using 17alpha-hydroxypregnenolone as substrate assessed as decrease in DHEA levels at 10 nM after 90 mins by ELISA relative to control; set-up: species or system Testis; details: 1.5 h
# [6] = molecular target: T1, Steroid 17-alpha-hydroxylase/17,20 lyase; test: Inhibition of CYP17 in human H295R cells assessed as decrease in testosterone levels after 24 hrs by ELISA; type: cell-based
# CYP11B = molecular target: T2, CYP11B (Rattus norvegicus, UniProt P15393+P30099); test: Inhibition of Sprague-Dawley rat adrenal mitochondrial CYP11B assessed as decrease in conversion of 11-deoxycortisol to cortisol at 100 nM incubated for 60 mins by ELISA relative to control; type: protein assay; details: adrenal mitochondria, probe 11-deoxycortisol
# T2 sequence (P30099 whole entry): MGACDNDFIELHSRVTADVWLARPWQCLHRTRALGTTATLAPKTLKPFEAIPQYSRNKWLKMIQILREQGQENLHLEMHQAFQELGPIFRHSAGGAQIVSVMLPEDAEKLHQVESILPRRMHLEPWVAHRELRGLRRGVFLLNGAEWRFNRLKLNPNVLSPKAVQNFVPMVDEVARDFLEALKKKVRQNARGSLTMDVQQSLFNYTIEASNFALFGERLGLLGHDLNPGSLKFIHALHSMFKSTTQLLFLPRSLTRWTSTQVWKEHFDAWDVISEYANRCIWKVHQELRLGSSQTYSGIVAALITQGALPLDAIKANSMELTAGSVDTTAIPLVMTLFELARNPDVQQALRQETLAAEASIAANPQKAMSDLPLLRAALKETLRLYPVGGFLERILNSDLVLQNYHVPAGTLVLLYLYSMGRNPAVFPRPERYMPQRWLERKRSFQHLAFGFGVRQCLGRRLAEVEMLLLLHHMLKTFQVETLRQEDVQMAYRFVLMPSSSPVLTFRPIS
# T2 sequence (P15393 whole entry): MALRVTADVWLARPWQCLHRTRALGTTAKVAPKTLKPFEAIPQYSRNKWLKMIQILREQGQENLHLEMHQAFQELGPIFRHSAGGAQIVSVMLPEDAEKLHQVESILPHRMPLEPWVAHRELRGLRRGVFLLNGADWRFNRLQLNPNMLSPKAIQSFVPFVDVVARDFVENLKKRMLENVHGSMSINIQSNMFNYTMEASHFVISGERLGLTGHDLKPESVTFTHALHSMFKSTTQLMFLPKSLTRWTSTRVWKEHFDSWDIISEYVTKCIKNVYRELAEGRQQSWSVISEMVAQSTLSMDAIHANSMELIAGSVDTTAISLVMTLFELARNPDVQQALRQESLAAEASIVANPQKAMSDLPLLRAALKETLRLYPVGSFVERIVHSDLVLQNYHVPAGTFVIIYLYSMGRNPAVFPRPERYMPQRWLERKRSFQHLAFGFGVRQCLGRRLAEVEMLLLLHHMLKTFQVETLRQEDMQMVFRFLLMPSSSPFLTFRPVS
# [7] = molecular target: T3, CYP21 (steroid 21-hydroxylase) (Homo sapiens, UniProt P08686); test: Inhibition of human CYP21 transfected in HEK293 cells assessed as decrease in conversion of progesterone to 11-deoxycorticosterone at 100 nM preincubated for 5 hrs followed by progesterone addition measured after 20 hrs by ELISA relative to control; type: cell-based; details: HEK293 cells transfected with human CYP21, probe progesterone
# T3 sequence (P08686 whole entry): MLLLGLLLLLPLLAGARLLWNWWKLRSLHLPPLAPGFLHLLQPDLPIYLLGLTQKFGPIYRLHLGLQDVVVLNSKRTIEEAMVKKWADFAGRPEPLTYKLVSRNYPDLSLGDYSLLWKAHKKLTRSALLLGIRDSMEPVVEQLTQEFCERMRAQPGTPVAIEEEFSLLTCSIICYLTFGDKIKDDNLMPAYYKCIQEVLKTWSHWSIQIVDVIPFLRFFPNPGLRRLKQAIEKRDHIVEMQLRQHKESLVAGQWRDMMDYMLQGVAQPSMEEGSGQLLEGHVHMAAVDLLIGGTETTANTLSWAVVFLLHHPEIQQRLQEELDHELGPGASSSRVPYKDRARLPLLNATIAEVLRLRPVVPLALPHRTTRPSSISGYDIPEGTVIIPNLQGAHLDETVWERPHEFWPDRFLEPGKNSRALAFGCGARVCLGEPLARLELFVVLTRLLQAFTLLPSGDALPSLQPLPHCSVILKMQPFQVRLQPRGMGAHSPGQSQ
pIC50 [1],inhibition at 0.01 µM [2] [%],half-life at 1 µM [3] [min],half-life at 1 µM [4] [min],SMILES,inhibition at 0.01 µM [5] [%],pIC50 [6],"inhibition at 1 h, 0.1 µM (CYP11B) [%]","inhibition at 20 h, 0.1 µM [7] [%]"
≥ 7.96,≥ 38,10 to 60,1 to 50,C[C@]12CCC(=O)OC[C@@H]1CC[C@@H]1[C@@H]2CC[C@]2(C)C(c3cccnc3)=CC[C@@H]12,–,–,–,–
≥ 7.96,–,10 to 60,10 to 60,C[C@]12CC(O)C[C@@H]1CC[C@@H]1[C@@H]2CC[C@]2(C)C(n3ccnc3)=CC[C@@H]12 (stereo not given in full),≥ 80,≥ 7.82,≥ 50,≥ 30
–,≥ 38,–,–,C[C@]12CC[C@H]3[C@@H](CCN4C(=O)C=CCC[C@]34C)[C@@H]1CC=C2c1cccnc1,–,–,–,–
–,≥ 38,1 to 10,1 to 10,C[C@]12CC[C@H]3[C@@H](CCN4C(=O)CC=CC[C@]34C)[C@@H]1CC=C2c1cccnc1,–,–,–,–
–,3 to 38,–,–,CCOc1cncc(C2=CC[C@H]3[C@@H]4CC[C@H]5COC(=O)CC[C@]5(C)[C@H]4CC[C@]23C)c1,–,–,–,–
–,≥ 38,–,–,COc1cncc(C2=CC[C@H]3[C@@H]4CC[C@H]5COC(=O)CC[C@]5(C)[C@H]4CC[C@]23C)c1,–,–,–,–
≥ 7.96,–,1 to 10,1 to 10,C[C@]12CCNC(=O)C=C1CC[C@@H]1[C@@H]2CC[C@]2(C)C(n3cncn3)=CC[C@@H]12,≥ 80,–,< 32,≥ 30
≥ 7.96,≥ 38,10 to 60,1 to 50,C[C@]12CCOC(=O)C[C@@H]1CC[C@@H]1[C@@H]2CC[C@]2(C)C(c3cccnc3)=CC[C@@H]12,–,–,–,–

SMILES,pIC50 [1],inhibition at 0.01 µM [2] [%],half-life at 1 µM [3] [min],half-life at 1 µM [4] [min],inhibition at 0.01 µM [5] [%],pIC50 [6],"inhibition at 1 h, 0.1 µM (CYP11B) [%]","inhibition at 20 h, 0.1 µM [7] [%]"
C[C@]12CC[C@H]3[C@@H](CC[C@H]4CC(=O)CC[C@@]43C)C1=CC=C2n1ccnc1,≥ 7.96,–,–,1 to 50,≥ 80,–,< 32,< 30
C[C@]12CC[C@H]3[C@@H](CC=C4C[C@@H](O)CC[C@@]43C)C1=CC=C2c1cccnc1,≥ 7.96,–,10 to 60,1 to 50,50 to 80,≥ 7.82,< 32,< 30
C[C@]12CC[C@H]3[C@@H](CCC4=CC(=O)CC[C@@]43C)C1=CC=C2n1ccnc1,≥ 7.96,–,10 to 60,≥ 50,≥ 80,–,≥ 50,< 30
